How the values were obtained:
[1] = system: cucumber chitinase protein; test: Cucumber chitinase ELISA in transgenic plants carrying cucumber chitinase genomic constructs after leaf treatment; format: in vivo, tobacco; parameters: key: —: Indicates that sample has no detectable level of chitinase protein
Method: Once the transgenic plants are transferred to soil, they are grown 4-5 weeks before treatment. The following solutions are applied to the leaves with sterile paintbrushes:
3. Methyl benzo-1,2,3-thiadiazole-7-carboxylate. The solution is made by resuspending a wettable powder containing a formulation of the chemical with 25% active ingredient in sterile water at a concentration of 1 mg/ml.
4. Methyl 2,6-dichloroisonicotinate, prepared as above. Alternatively, 30 ul of 10 mM sodium phosphate buffer, pH 7.0, or 30 ul of the same buffer containing tobacco mosaic virus (50-100 pfu/30 ul) is applied to the leaves which have been sprinkled with carborundum. The buffers are distributed over the whole treated leaf by gentle rubbing.
The plants are allowed to continue to grow for seven days. The treated leaves are then harvested, frozen in liquid nitrogen and stored at −80° C. until they are assayed.
Frozen leaf tissue is ground in a mortar with a pestle in the presence of liquid nitrogen to produce a fine powder. 0.33 g of each tissue sample is added to 1 ml extraction buffer (50 mM Tris-HCl, pH 8.5, 0.2M 2-mercaptoethanol, 2 mM phenyl methyl sulfonyl fluoride, 2 mM benzamidine, 10 mM epsilon-aminocaproic acid, 1 mM leueptine) and the sample homogenized for one minute with an Ultra Turrax Mixer (shaft #S25N-8G, Tekmar Co. Cincinnati, Ohio). The samples are then centrifuged at 48,000×g for fifteen minutes at 4° C. and the supernatant removed from the pelleted material. The extracts are diluted at least 1:50 in ELISA diluent (101 mM sodium phosphate, pH 7.4, 140 mM sodium chloride, 0.05% Tween 20, 0.02% sodium azide, 1% BSA).
A microtiter plate is coated with monoclonal antibody specific to the cucumber chitinase protein at 2 ug/ml in borate-buffered saline (100 mM boric acid, 25mM sodium borate, 75 mM sodium chloride; pH 8.5) using 50 ul per well. The plate is incubated overnight at 4° C. The plate is washed with ELISA wash buffer (10 mM Tris-HCl, pH 8.0, 0.05% Tween 20, 3 mM sodium azide) and BSA blocking solution (10 mM sodium phosphate, pH 7.4, 140 mM sodium chloride, 0.02% sodium azide, 1% BSA) is added to completely cover each well. Incubation is for at least 30 minutes at room temperature.
The microtiter plate is washed with ELISA wash buffer and 50 ul of extract is added to the appropriate well. 50 ul of each of 10 chitinase protein standards (ranging from 0 ng/ml to 31.64 ng/ml) was also added to the appropriate well and the plate is incubated for two hours at 4° C. The plate is washed with ELISA wash buffer and 50 ul of rabbit polyclonal antibody to the cucumber chitainase protein (diluted 1:15,000 in ELISA diluent) is added to the well and incubated for one hour at 37° C. After washing with ELISA wash buffer, 50 ul of goat anti-rabbit conjugated to alkaline phosphatase (1:500 in ELISA diluent) is added to each well and incubated at 37° C. for one hour. The plate is then washed and 50 ul alkaline phosphatase substrate solution (0.6 mg/ml p-nitrophenyl phosphate in 0.5 mM magnesium chloride and 10% diethanolamine) is added to each well. After a 30 minute incubation at room temperature, 50 ul of 3N sodium hydroxide is added to each well to stop the reaction.
The plate is read at 405 nm and 492 nm on an HP Genenchem ELISA plate reader. The output values are expressed as A(405 nm)-A(492 nm)−0.092 to allow for correction of p-nitrophenyl phosphate as substrate. The chitinase standards for each plate are graphed logarithmically. The amount of chitinase protein in each sample is determined from the standard curve. If the amount of chitinase in any sample is close to the upper limit of the curve, the sample is assayed again at a greater dilution. Final results are expressed in the table below in ug chitinase per gram tissue.

[2] = system: chemically regulatable chimeric genes coding for GUS, AHAS or BT; test: Primer extension assay for mRNA of chemically regulatable chimeric genes; format: in vivo; conditions: callus or regenerated plant material from transgenic plants; level proportional to amount of regulator applied
Method: 50 g of total RNA is lyophilized in a 500 l Eppendorf tube. The RNA is resuspended in 30 l of radiolabeled probe solution and heated to 70′ C. for 10 minutes. The tube is slowly cooled to 37° C. and allowed to incubate overnight. Without removing the tube from the 37° C. water bath, 2 l of 10×reverse-transcriptase buffer (500 mM Tris-HCl, pH 7.5, 400 mM KCl, 30 mM MgCl2), 1 l 5 mg/ml bovine serum albumin, 5 l 100 mM dithiothreitol, 5 l 10×dNTPs (10 mM of each dNTP in H2O), 3 l H 20, 2 l RNasin (80 units), and 2 l reverse transcriptase (400 units) are added and the reaction is incubated at 37° C. for 30 minutes. To stop the reaction, 5 l of 3 M sodium acetate, pH 5, and 150 l absolute ethanol are added. The tube is left at −20° C. for 30 minutes, the precipitate is collected by centrifugation, washed with 80% ethanol and allowed to air-dry. The precipitate is resuspended in 10-20 l of loading dye (90% formamide, 0.05% bromophenol blue, 0.05% xylene cyanol, 1 mM EDTA) and the extension products are separated on a 6% sequencing gel (Maniatis, T. et al., supra). Extension products are visualized by autoradiography.
Plant materials induced and harvested as in Examples 140 to 142 are assayed for the induction of mRNA species by the isolation of RNA and the primer extension assay as described in Example 6.
The level of mRNA is proportional to the amount of regulator applied.

COC(=O)c1cccc2nnsc12 [Methyl benzo-1,2,3-thiadiazole-7-carboxylate]
ELISA ASSAY RESULTS (ug chitinase/g tissue) ([1]; line Bam-1 (2001/BamChit), leaves harvested after seven days, water 0.066, buffer —): 3.000 ug chitinase/g tissue | ELISA ASSAY RESULTS (ug chitinase/g tissue) ([1]; line Bam-3 (2001/BamChit), seven days, water —, buffer —): 0.504 ug chitinase/g tissue | ELISA ASSAY RESULTS (ug chitinase/g tissue) ([1]; line Bam-4 (2001/BamChit), seven days, water —, buffer —): — | ELISA ASSAY RESULTS (ug chitinase/g tissue) ([1]; line Bam-8 (2001/BamChit), seven days, water —, buffer —): — | ELISA ASSAY RESULTS (ug chitinase/g tissue) ([1]; line Bam-9 (2001/BamChit), seven days, water —, buffer —): 33.885 ug chitinase/g tissue | ELISA ASSAY RESULTS (ug chitinase/g tissue) ([1]; line Bam-10 (2001/BamChit), seven days, water 0.059, buffer 0.084): 25.182 ug chitinase/g tissue | ELISA ASSAY RESULTS (ug chitinase/g tissue) ([1]; line Bam-12 (2001/BamChit), seven days, water —, buffer —): 1.349 ug chitinase/g tissue | ELISA ASSAY RESULTS (ug chitinase/g tissue) ([1]; line Bam-14 (2001/BamChit), seven days, water —, buffer —): 0.541 ug chitinase/g tissue | ELISA ASSAY RESULTS (ug chitinase/g tissue) ([1]; line Bam-15 (2001/BamChit), seven days, water —, buffer —): 3.366 ug chitinase/g tissue | ELISA ASSAY RESULTS (ug chitinase/g tissue) ([1]; line Bam-16 (2001/BamChit), seven days, water —, buffer —): 18.849 ug chitinase/g tissue | ELISA ASSAY RESULTS (ug chitinase/g tissue) ([1]; line Bam-17 (2001/BamChit), seven days, water —, buffer —): 2.997 ug chitinase/g tissue | ELISA ASSAY RESULTS (ug chitinase/g tissue) ([1]; line Bam-19 (2001/BamChit), seven days, water —, buffer —): 0.998 ug chitinase/g tissue | ELISA ASSAY RESULTS (ug chitinase/g tissue) ([1]; line Bam-21 (2001/BamChit), seven days, water —, buffer —): — | ELISA ASSAY RESULTS (ug chitinase/g tissue) ([1]; line Bam-23 (2001/BamChit), seven days, water —, buffer —): 0.782 ug chitinase/g tissue | ELISA ASSAY RESULTS (ug chitinase/g tissue) ([1]; line Bam-24 (2001/BamChit), seven days, water —, buffer —): 0.88 ug chitinase/g tissue | ELISA ASSAY RESULTS (ug chitinase/g tissue) ([1]; line Bam-25 (2001/BamChit), seven days, water —, buffer —): 18.145 ug chitinase/g tissue | ELISA ASSAY RESULTS (ug chitinase/g tissue) ([1]; line Bam-26 (2001/BamChit), seven days, water —, buffer —): 0.676 ug chitinase/g tissue | ELISA ASSAY RESULTS (ug chitinase/g tissue) ([1]; line Nco-2 (2001/NcoChit), seven days, water —, buffer —): — | ELISA ASSAY RESULTS (ug chitinase/g tissue) ([1]; line Nco-3 (2001/NcoChit), seven days, water —, buffer —): — | ELISA ASSAY RESULTS (ug chitinase/g tissue) ([1]; line Nco-5 (2001/NcoChit), seven days, water —, buffer —): — | ELISA ASSAY RESULTS (ug chitinase/g tissue) ([1]; line Nco-8 (2001/NcoChit), seven days, water —, buffer —): — | ELISA ASSAY RESULTS (ug chitinase/g tissue) ([1]; line Nco-9 (2001/NcoChit), seven days, water —, buffer —): — | ELISA ASSAY RESULTS (ug chitinase/g tissue) ([1]; line Nco-10 (2001/NcoChit), seven days, water —, buffer —): 0.047 ug chitinase/g tissue | ELISA ASSAY RESULTS (ug chitinase/g tissue) ([1]; line Nco-11 (2001/NcoChit), seven days, water —, buffer —): — | ELISA ASSAY RESULTS (ug chitinase/g tissue) ([1]; line Nco-15 (2001/NcoChit), seven days, water —, buffer —): — | ELISA ASSAY RESULTS (ug chitinase/g tissue) ([1]; line Nco-16 (2001/NcoChit), seven days, water 0.555, buffer 0.566): 0.784 ug chitinase/g tissue | ELISA ASSAY RESULTS (ug chitinase/g tissue) ([1]; line Nco-17 (2001/NcoChit), seven days, water —, buffer —): — | ELISA ASSAY RESULTS (ug chitinase/g tissue) ([1]; line Sal-2 (2001/SalChit), seven days, water —, buffer —): 0.117 ug chitinase/g tissue | ELISA ASSAY RESULTS (ug chitinase/g tissue) ([1]; line Sal-3 (2001/SalChit), seven days, water —, buffer —): 0.060 ug chitinase/g tissue | ELISA ASSAY RESULTS (ug chitinase/g tissue) ([1]; line Sal-4 (2001/SalChit), seven days, water —, buffer —): 0.537 ug chitinase/g tissue | ELISA ASSAY RESULTS (ug chitinase/g tissue) ([1]; line Sal-5 (2001/SalChit), seven days, water —, buffer —): 0.229 ug chitinase/g tissue | ELISA ASSAY RESULTS (ug chitinase/g tissue) ([1]; line Sal-7 (2001/SalChit), seven days, water —, buffer —): 0.377 ug chitinase/g tissue | ELISA ASSAY RESULTS (ug chitinase/g tissue) ([1]; line Sal-8 (2001/SalChit), seven days, water —, buffer —): — | ELISA ASSAY RESULTS (ug chitinase/g tissue) ([1]; line Sal-9 (2001/SalChit), seven days, water —, buffer —): 0.553 ug chitinase/g tissue | ELISA ASSAY RESULTS (ug chitinase/g tissue) ([1]; line Sal-11 (2001/SalChit), seven days, water —, buffer —): — | ELISA ASSAY RESULTS (ug chitinase/g tissue) ([1]; line Sal-12 (2001/SalChit), seven days, water —, buffer —): — | ELISA ASSAY RESULTS (ug chitinase/g tissue) ([1]; line Sal-13 (2001/SalChit), seven days, water —, buffer —): — | ELISA ASSAY RESULTS (ug chitinase/g tissue) ([1]; line Sal-14 (2001/SalChit), seven days, water —, buffer —): — | ELISA ASSAY RESULTS (ug chitinase/g tissue) ([1]; line Sal-15 (2001/SalChit), seven days, water —, buffer —): 0.038 ug chitinase/g tissue | level of mRNA of the chimeric gene (GUS, AHAS or BT primer), primer extension assay [2]: elevated levels of mRNA

From patent US6632981B1, “DNA sequences encoding polypeptides having beta-1,3-glucanase activity” (Novartis Finance Corporation, priority 1988, dated 2003)
